Tests used:
S. aureus 13709 = experiment: MIC assay, 96 well broth dilution with MTT staining; format: cell-based; set-up: unit not given beside the values; details: BHI containing 0.1% casamino acids, 35-37° C., 20 h
Protocol: (§1) A 96 well plate with 100 μL test medium in all wells was prepared by handheld multipipettor. A stock solution of the antibiotic or compound in DMSO (0.05˜10 mg/mL, 5 μL) and the same medium (95 μL) were put together into column one, where the compound concentration doubled the highest one to be tested. Two columns were necessary for each compound to check the reproducibility. The compound was diluted by adding 100 μL from column one to column two with a 50% volume mix done three times; diluting serially across the plate was continued.
(§2) The day before the assay was scheduled to be run, strains were suspended in the test media (Brain Heart Infusion (BHI) containing 0.1% casamino acids for S. aureus, S. epidermidis, and E. faecalis, Trypticase Soy Broth (TSB) containing 5% sheep blood for S. pneumoniae, and Lysogeny Broth (LB) for E. coli) and incubated overnight at 35-37° C. The suspension was diluted with the same media to 1%, 100 μL of which was added to each well of the MIC plate. The MIC plate was incubated at 35-37° C. for 20 h. A thiazolyl blue tetrazolium bromide (MTT) solution (1 mg/mL-water, 50 μL) was added into each well and the resulting MIC plate was incubated at 35-37° C. for a few hours to stain wells in which cell proliferated. Growth is also visible as any turbidity in wells.

E. coli MG1655 = experiment: as above; format: cell-based; set-up: unit not given beside the values; details: LB, 35-37° C., 20 h
Protocol: as §1, §2

S. aureus 25923 = experiment: as above; format: cell-based; set-up: unit not given beside the values; details: S. aureus 25923 (second strain line); BHI containing 0.1% casamino acids; 35-37° C., 20 h
Protocol: as §1, §2

Gram-positive organisms = details: against Gram-positive organisms; cited from earlier work
[1] = Pharmacokinetics following IV and SC administration; format: in vivo; details: for half-life: NCA analysis
Protocol: Curtailing the tail portion of Moenomycin A (MmA) led to shorter half-life. […] The clearance following IV administration was very low leading higher exposure (3 mL/hr/kg) and volume of distribution (Vss) was 0.5 L/kg.

E. coli NR698 = format: cell-based; set-up: unit not given beside the values; details: LB, 35-37° C., 20 h
Protocol: as §1, §2

Compound `C=C(C/C=C(\C)CCC=C(C)C)CCC(C)(C)/C=C/CC/C(C)=C/CO[C@@H](COP(=O)(O)O[C@H]1O[C@H](C(N)=O)[C@@](C)(O)[C@H](OC(N)=O)[C@H]1O[C@@H]1O[C@H](CO[C@@H]2O[C@H](CO)[C@@H](O)[C@H](O)[C@H]2O)[C@@H](O[C@@H]2O[C@H](C)[C@@H](O[C@@H]3O[C@H](C(=O)NC4=C(O)CCC4=O)[C@H](O)[C@H](O)[C@H]3O)[C@H](O)[C@H]2NC(C)=O)[C@H](O)[C@H]1NC(C)=O)C(=O)O` [Moenomycin A] has an MIC (S. aureus 13709; S. aureus 13709 (first strain line)) of 0.16, an MIC (S. aureus 13709; S. aureus 13709 (third strain line)) of 0.078 and an MIC (E. coli MG1655) of 31. For the same compound, the MIC (S. aureus 25923) was 0.16, the “potency compared with vancomycin” value (Gram-positive organisms) was 10-1000 times and the clearance ([1]; IV administration (2 mpk)) was 3 mL/h/kg. For the same compound, the “volume of distribution (Vss)” value ([1]; IV administration (2 mpk)) was 0.5 L/kg, the half-life ([1]; IV administration (2 mpk)) was 209 h and the “% SC bioavailability” value ([1]; SC (10 mpk) vs IV (2 mpk)) was 89%. The half-life ([1]; SC administration (10 mpk)) was 180 h, the systemic exposure ([1]; following IV (2 mpk) and SC (10 mpk) administration) was “significant systemic exposure” and the MIC (E. coli NR698) was 0.0098.

Reference: patent publication US9273084B2, “Moenomycin analogs, methods of synthesis, and uses thereof” (priority 2012, dated 2016)
